# Structures can show the parent of a compound that is named as a salt.
# System: Saccharomyces cerevisiae ABC16-Green Monster
# Conditions: 18 h; 30 °C; YPD
# Method: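 Growth inhibition of the drug-sensitive S. cerevisiae ABC16-Green Monster strain (16 ABC transporters deleted) in YPD at 30 °C for 18 h. […] dilution series […] in biological replicates; IC50 from OD600 (18 h minus 0 h) fitted by variable-slope nonlinear regression in GraphPad Prism. Library compounds were first screened at 150 µM, and only those with at least 70% inhibition went to dose-response; the rest are marked inactive.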
row,SMILES,IC50 growth inhibition
1,COC1=CC(C)=CC(C)C(O)C(C)CC(C)=CC=CC(OC)C(C(C)C(O)C(C)C2(O)CC(O)C(C)C(C(C)C)O2)OC1=O (stereo not drawn) [Bafilomycin A1],0.164 µM
2,OC(CNCC1CCCO1)Cn1c2ccc(Cl)cc2c2cc(Cl)ccc21 (stereo not drawn),4.91 µM
3,Brc1ccc(Nc2nc3ccccc3nc2Nc2ccc(Br)cc2)cc1,2.31 µM
4,O=C(Nc1nc(-c2ccccn2)cs1)C1CC1c1ccccc1F (stereo not drawn),6.32 µM
5,Clc1cccc(Nc2ncc(-c3ccc4c(c3)OCCCO4)s2)c1,15.4 µM
6,C=CCc1ccc(O)c(-c2ccc(O)c(CC=C)c2)c1 [Honokiol],13.2 µM
7,COc1cc(C)c2c(Oc3cccc(C(F)(F)F)c3)c(OC)cc(NC(C)CCCN)c2n1 (stereo not drawn) [Tafenoquine],101 µM
8,CCn1nc(-c2ccc(C(=O)OC)cc2)nc2c(=O)n(C)c(=O)nc1-2,0.601 µM
9,CCOc1ccc(C(=O)CN(C#N)C(=O)c2ccccc2)cc1,25 µM
10,CC(C)=CCC/C(C)=C\CNCCNC1C2CC3CC(C2)CC1C3 (stereo not drawn),18.2 µM
11,O=C(c1ccco1)N(CCCn1ccnc1)c1nc2c(Cl)cccc2s1,40.8 µM
12,Nc1[nH]c(=O)ncc1F [Flucytosine],15.1 µM
13,CC(C)Cn1c2c(c(O)c(C(=O)Nc3ncccc3O)c1=O)CCCC2 [CBR572],46.9 µM
14,Cc1cc(NCCc2ccccc2)nc(NC(=N)Nc2ccc(Cl)cc2)n1,53.8 µM
15,O=C(Nc1ccc2oc(-c3cccc4ccccc34)nc2c1)c1ccc([N+](=O)[O-])o1 [GNF-PF-2740],0.941 µM
16,CCCCN(CCCC)CC(O)c1cc(Cl)cc2c1-c1ccc(Cl)cc1C2=Cc1ccc(Cl)cc1 (stereo not drawn) [Lumefantrine],> 75 µM
17,OC(c1cc(C(F)(F)F)nc2c(C(F)(F)F)cccc12)C1CCCCN1 (stereo not drawn) [Mefloquine],29.9 µM
18,Nc1nc(F)nc2c1ncn2C1OC(CO)C(O)C1O (stereo not drawn) [Fludarabine],> 75 µM
19,COc1cc(OC)cc(C(=O)NCC2Cc3cc(Cl)cc(-c4ccncc4)c3O2)c1 (stereo not drawn),14.4 µM
20,Cc1nn(C(C)(C)C)c(C)c1/C=N/OC(=O)Nc1ccc(Cl)cc1,39.1 µM
21,CC(C)/N=c1\cc2n(-c3ccc(Cl)cc3)c3ccccc3nc-2cc1Nc1ccc(Cl)cc1 [Clofazimine],5.81 µM
22,CC(C)(C)n1nc(Cc2cccc3ccccc23)c2c(N)ncnc21,27.6 µM
23,COc1ccccc1C(C)NCC(=O)Nc1cc(C(F)(F)F)ccc1Cl (stereo not drawn),32.4 µM
24,O=C(Nc1ccc([N+](=O)[O-])cc1Cl)c1cc(Cl)ccc1O [Niclosamide],1.53 µM
25,CN(Cc1nc(N)c2c3c(sc2n1)CCCC3)Cc1cccs1,107 µM
26,CC1COC(Cn2cncn2)(c2ccc(Oc3ccc(Cl)cc3)cc2Cl)O1 (stereo not drawn),39 µM

row,SMILES,IC50 growth inhibition
1,FC(F)c1nc2ccccc2n1-c1nc(N2CCOCC2)nc(N2CCOCC2)n1 [ZSTK-474],52 µM
2,Cc1c(C(=O)Nc2ccccc2O)cnn1-c1cccc(C(F)(F)F)c1,23.9 µM
3,c1ccc(Oc2ccc(-c3cc(C4CCOCC4)[nH]n3)cc2)cc1,55.6 µM
4,OC(CNC1CCCCC1)Cn1c2ccc(I)cc2c2cc(I)ccc21 (stereo not drawn),3.98 µM
5,CC(C)c1ccc(/C=C2\CCc3c2nc2ccccc2c3C(=O)O)cc1,19.9 µM
6,Cn1cc(CN2CCc3c(c(C(=O)NCc4nccs4)nn3Cc3ccccc3)C2)c2ccccc21,109 µM
7,CCN(CC)CCCC(C)Nc1ccnc2cc(Cl)ccc12 (stereo not drawn) [Chloroquine],> 75 µM
8,CC[C@@]1(O)C[C@H](O[C@H]2C[C@H](N(C)C)[C@H](O[C@H]3C[C@H](O)[C@H](O[C@H]4CCC(=O)[C@H](C)O4)[C@H](C)O3)[C@H](C)O2)c2c(cc3c(c2O)C(=O)c2c(O)cccc2C3=O)[C@H]1C(=O)OC [Aclarubicin],4.79 µM
9,COC1C=COC2(C)Oc3c(C)c(O)c4c(c3C2=O)C(=O)C(=CNN2CCN(C)CC2)C(=C4O)NC(=O)C(C)=CC=CC(C)C(O)C(C)C(O)C(C)C(OC(C)=O)C1C (stereo not drawn) [Rifampicin],> 75 µM
10,Cc1cc(NS(=O)(=O)c2ccc(Nc3nc(-c4ccc(Cl)c(Cl)c4)cs3)cc2)no1 [CBR410],4.87 µM
11,CCCn1c(NC(=O)c2ccc3ccccc3n2)nc2ccccc21,40 µM
12,COc1cccc(-n2nnnc2S(=O)(=O)Cc2ccccc2)c1,16.1 µM
13,COc1cccc(-n2nnnc2S(C)(=O)=O)c1,53.8 µM
14,Nc1ccn(C2OC(CO)C(O)C2(F)F)c(=O)n1 (stereo not drawn) [Gemcitabine],> 75 µM
15,CN[C@H]1C[C@@H](N)[C@H](O)[C@@H](O[C@@H]2O[C@H](CO)[C@H](O)[C@@H]3O[C@@]4(O[C@H]23)O[C@H]([C@H](N)CO)[C@H](O)[C@H](O)[C@H]4O)[C@@H]1O [Hygromycin B],13.8 µM
16,FC(F)Sc1ccc2nc3ccccc3c(N3CCOCC3)c2c1,30 µM
17,C=C1[C@@H](C)[C@H]2[C@H](Cc3ccccc3)NC(=O)[C@]23OC(=O)/C=C/[C@H](O)CCC[C@@H](C)C/C=C/[C@H]3[C@@H]1O [Cytochalasin B],> 75 µM
18,Clc1ccccc1-c1nc([P+](c2ccccc2)(c2ccccc2)c2ccccc2)c(N2CCOCC2)o1 [GNF-PF-2863],8.55 µM
19,O[C@@H](c1cc(C(F)(F)F)nc2c(C(F)(F)F)cccc12)[C@H]1CCCCN1,45.6 µM
20,Cc1cc(C(=O)NCCc2cccc(F)c2)c(C)n1C(C)C,20.7 µM
21,Cc1cc(C(=O)NNC(=O)c2c(C)nc3ccccn23)c2nc3n(c2n1)CCCCC3,41.8 µM
22,CN1C=C/C(=C/c2ccc3ccccc3[n+]2C)c2ccccc21,51.4 µM
23,Nc1ccc(C(=O)Nc2ccc(-c3nc4ccccc4o3)cc2)cc1,19 µM
24,COC1C(OC(N)=O)C(O)C(Oc2ccc3c(O)c(NC(=O)c4ccc(O)c(CC=C(C)C)c4)c(=O)oc3c2C)OC1(C)C (stereo not drawn) [Novobiocin],> 75 µM
25,CC1CCC2C(C)C(O)OC3OC4(C)CCC1C32OO4 (stereo not drawn) [Dihydroartemisinin],> 75 µM
26,CCCCCC(=O)N[C@H](C(=O)N[C@@H](CCS(C)(=O)=O)C(=O)N[C@@H](CC(C)C)C(=O)[C@@]1(C)CO1)C(C)C [Carmaphycin B],24.8 µM

row,SMILES,IC50 growth inhibition
1,c1ccc(-c2cn3nc(NCc4ccccc4CN4CCOCC4)sc3n2)cc1,106 µM
2,CS(=O)(=O)Nc1nc(-c2ccccn2)nc2scc(-c3ccccc3)c12,13.8 µM
3,CC(C)c1csc(NC(=O)c2cnn(-c3ccccc3F)c2C(F)(F)F)n1,31.3 µM
4,COC1CC2CCC(C)C(O)(O2)C(=O)C(=O)N2CCCCC2C(=O)OC(C(C)CC2CCC(O)C(OC)C2)CC(=O)C(C)C=C(C)C(O)C(OC)C(=O)C(C)CC(C)C=CC=CC=C1C (stereo not drawn) [Rapamycin],0.727 µM
5,O=C1c2ccccc2C2=Nc3ccccc3SC(c3ccccc3F)C12 (stereo not drawn) [GNF-Pf-3582],5.87 µM
6,O=C([C@@H](c1ccc(Cl)cc1)c1cccnc1)N1CCN(c2ccc(C(F)(F)F)cc2)CC1,50 µM
7,CCN(CC)C(=S)SSC(=S)N(CC)CC [Disulfiram],52.9 µM
8,O=C(Nc1cccc(C(F)(F)F)c1)Nc1ncc([N+](=O)[O-])s1,52.4 µM
9,Cc1nc(-c2ccccn2)nc(N(C)CCc2ccccc2)c1Cl,43.3 µM
10,CC1=NN(c2nc3ccccc3s2)C(=O)C1Cc1cccc2ccccc12 (stereo not drawn),40.7 µM
11,Cc1cc(Nc2ccc(OCc3ccccc3)cc2)nc2cc(O)ccc12,2.38 µM
12,Cc1cc(C(=O)ONC(=N)c2ccccc2)nn1C(C)(C)C,63.5 µM
13,CC(Oc1ccc(Cl)cc1Cl)c1nc(-c2ccc(NC(=O)c3ccco3)cc2)no1 (stereo not drawn) [GNF-Pf-3333],2.8 µM
14,Cc1nc([P+](c2ccccc2)(c2ccccc2)c2ccccc2)c(N2CCCCC2)o1 [GNF-Pf-445],9.44 µM
15,CC(C)CC(NC(=O)C(Cc1ccccc1)NC(=O)c1cnccn1)B(O)O (stereo not drawn) [Bortezomib],46.2 µM
16,CCCc1nn(C)c2c(=O)nc(-c3cc(S(=O)(=O)N4CCN(C)CC4)ccc3OCC)[nH]c12 [Sildenafil citrate],> 75 µM
17,COc1cc(C=Cc2ccc(O)cc2)cc(OC)c1 [Pterostilbene],29.4 µM
18,CNCCC(Oc1ccc(C(F)(F)F)cc1)c1ccccc1 (stereo not drawn),48.3 µM
19,COC1=C2CC(C)CC(OC)C(O)C(C)C=C(C)C(OC(N)=O)C(OC)C=CC=C(C)C(=O)NC(=CC1=O)C2=O (stereo not drawn) [Geldanamycin],> 75 µM
20,COC(=O)c1ccc(C(=O)OC)c(N2C(=O)C=CC2=O)c1,67.7 µM
21,Cc1c(C)n(CCCN(C)C)c2ncn3nc(COc4ccccc4)nc3c12,39.6 µM
22,CCC(=C(CC)c1ccc(O)cc1)c1ccc(O)cc1 [Diethylstilbestrol],5.86 µM
23,CC1(C)OB(O)c2cc(NC(=O)c3ccc(-n4cccn4)cc3Cl)ccc21 [AN7973],0.355 µM
24,O=C(c1cccs1)N1CCN(c2ccc([N+](=O)[O-])c(NC3CC3)c2)CC1 [GNF-Pf-3455],> 150 µM
25,NC(=O)N1CCC(CC(=O)N2CCC([C@H]3c4ncc(Br)cc4CCc4cc(Cl)cc(Br)c43)CC2)CC1 [Lonarfanib],20.4 µM
26,CC(c1ncncc1F)C(O)(Cn1cncn1)c1ccc(F)cc1F (stereo not drawn) [Voriconazole],0.18 µM

# — the supplement of paper PMC8837787
